These results are taken from patent publication US4745191A, “1-((A-substituted phenyl-ω-substituted piperazinyl)alkenyl) cyclohexanol” (American Home Products Corporation, priority 1987, dated 1988).

A word on the inhibition: it is the drop in the measured response relative to a control, in per cent. For orientation: pKi means the Ki on a negative log10 scale, so that one unit is a factor of ten. Broadly, the pIC50 is the IC50 on a negative log10 scale, so that one unit is a factor of ten.

pIC50, pKi: −log10 of the molar value. Where two headings read alike, the source gives them in different places.

For one assay, the target named is T1, 5-HT1A receptor (Rattus norvegicus, UniProt P19327).
T1 construct: from tissue; host or cells: rat hippocampal tissue
T1 sequence (P19327 1-422): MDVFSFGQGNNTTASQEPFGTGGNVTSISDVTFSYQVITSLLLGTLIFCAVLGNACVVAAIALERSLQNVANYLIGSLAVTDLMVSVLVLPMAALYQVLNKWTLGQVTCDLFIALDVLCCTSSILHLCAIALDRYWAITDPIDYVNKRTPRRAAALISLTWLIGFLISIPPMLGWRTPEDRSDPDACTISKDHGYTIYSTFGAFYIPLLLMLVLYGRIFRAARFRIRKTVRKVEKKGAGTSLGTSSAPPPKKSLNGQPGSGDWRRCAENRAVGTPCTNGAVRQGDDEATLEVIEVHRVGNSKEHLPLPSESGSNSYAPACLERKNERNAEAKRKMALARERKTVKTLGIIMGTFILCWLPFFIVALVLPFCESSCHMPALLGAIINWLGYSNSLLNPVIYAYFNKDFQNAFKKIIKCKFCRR
Put plainly: inhibition of [3H] 8-hydroxy-2-(di-n-propylamino)tetraline binding at 5-HT1A receptor binding sites in rat hippocampal tissue. To be noted: for inhibition at 1 µM: read-out: Receptor Binding 5HT1A % Inhibition at 1 μM.

The target in a further assay is T2, dopamine D2 receptor (Rattus norvegicus, UniProt P61169).
T2 construct: D2 receptors found in homogenized limbic brain tissue; from tissue; host or cells: homogenized limbic brain tissue
T2 sequence (P61169 whole entry): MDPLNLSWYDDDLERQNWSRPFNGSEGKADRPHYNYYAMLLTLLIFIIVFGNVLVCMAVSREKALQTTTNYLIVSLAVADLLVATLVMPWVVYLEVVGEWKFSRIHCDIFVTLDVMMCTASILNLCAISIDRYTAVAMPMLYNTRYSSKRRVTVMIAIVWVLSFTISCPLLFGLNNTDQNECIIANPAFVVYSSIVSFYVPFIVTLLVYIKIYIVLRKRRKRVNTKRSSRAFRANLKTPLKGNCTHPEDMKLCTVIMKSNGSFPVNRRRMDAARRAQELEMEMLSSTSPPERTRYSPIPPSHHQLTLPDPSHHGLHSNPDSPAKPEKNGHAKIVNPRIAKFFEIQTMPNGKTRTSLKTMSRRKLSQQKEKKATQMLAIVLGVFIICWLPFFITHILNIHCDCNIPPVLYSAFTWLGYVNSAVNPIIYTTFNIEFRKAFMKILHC
Put plainly: inhibition of 3H-haloperidol binding at D2 receptors in homogenized limbic brain tissue.

The test system of assay [1] is NE (synaptosomal norepinephrine uptake). Put plainly: inhibition of synaptosomal uptake of norepinephrine (3H-NE). As to conditions: synaptosomal 3H-NE uptake; for pIC50: read-out: Neuronal Uptake NE IC50. In kind it is biochemical.
Assay [2] relates to 5HT (synaptosomal serotonin uptake). Kind of assay: inhibition of synaptosomal uptake of serotonin (14C-5-HT). The format is biochemical. To be noted: synaptosomal 14C-5-HT uptake; for pIC50: read-out: Neuronal Uptake 5HT IC50.
Where [3] appears, read: at 1 μM, rat hippocampal tissue.

Description for 5-HT1A receptor: 8-hydroxy-2-(di-n-propylamino)tetraline binding at 5-HT binding sites in rat hippocamphal tissue, following the procedure of Hall et al., J. Neurochem., 44 1685 (1985).
Description for dopamine D2 receptor: The actual percentage reduction of ^3 H-haloperidol binding is reported infra and the larger the number, the greater the potential for dopamine D2 receptor binding and antipsychotic activity.

Regarding `O=C1CC2(CCCC2)CC(=O)N1CCCCN1CCN(c2ncccn2)CC1` [Buspirone, reference compound], the inhibition at 1 µM on 5-HT1A receptor came out at 97%.

Compound `COc1cccc(C(=CCN2CCN(Cc3ccccc3)CC2)C2(O)CCCCC2)c1` [Example 1, 1-[1-(3-methoxyphenyl)-3-[4-(phenylmethyl)-1-piperazinyl]-1-propenyl]cyclohexanol] gave a pKi at 5-HT1A receptor (rat hippocampal tissue) of 8.52. At dopamine D2 receptor, this compound had an inhibition at 1 µM of 80%. For the same compound, the negative logarithm of the IC50 (pIC50) in assay [1] is 6.19; in assay [2] it was 5.77.

For the compound `COc1ccc(C(=CCN2CCN(Cc3ccccc3)CC2)C2(O)CCCCC2)cc1` [Example 2, 1-[1-(4-methoxyphenyl)-3-[4-(phenylmethyl)-1-piperazinyl]-1-propenyl]cyclohexanol], the pKi at 5-HT1A receptor (rat hippocampal tissue) was 8.40. On dopamine D2 receptor, this compound returned an inhibition at 1 µM of 66%.

Consider `COc1cccc(C(=CCN2CCN(Cc3cccc(Cl)c3)CC2)C2(O)CCCCC2)c1` [Example 4], for which the pKi at 5-HT1A receptor (rat hippocampal tissue) is 9.15; at dopamine D2 receptor, 7.77. Further, the “Neuronal Uptake NE % Inhibition at 10 μM” value in assay [1] (at 10 μM) amounted to 100%. For the same compound, the “Neuronal Uptake 5HT % Inhibition at 10 μM” value in assay [2] (at 10 μM) was found to be 100%.

For `COc1cccc(C(=CCN2CCN(Cc3ccc(Cl)cc3)CC2)C2(O)CCCCC2)c1` [Example 5, 1-[3-[4-[(4-chlorophenyl)methyl]-1-piperazinyl]-1-(3-methoxyphenyl)-1-propenyl]cyclohexanol], the inhibition at 1 µM on 5-HT1A receptor (setting [3]) was found to be 99%; on dopamine D2 receptor it was 76%.

For `COc1cccc(C(=CCN2CCN(Cc3ccc(C(F)(F)F)cc3)CC2)C2(O)CCCCC2)c1` [Example 6, 1-[1-(3-methoxyphenyl)-3-[4-[[4-(trifluoromethyl)phenyl]methyl]-1-piperazinyl]-1-propenyl]cyclohexanol], the inhibition at 1 µM was determined as 99% on 5-HT1A receptor (setting [3]) and 76% at dopamine D2 receptor.

Turning to `COc1cccc(C(=CCN2CCN(c3ncccn3)CC2)C2(O)CCCCC2)c1` [Example 7], the pKi at 5-HT1A receptor (rat hippocampal tissue) was 7.31. The compound also yielded an inhibition at 1 µM at dopamine D2 receptor of 61%. Besides, the pIC50 in assay [1] is 5.32; in assay [2], 5.68.

Compound `COc1cccc(C(=CCN2CCN(c3cncc(Cl)n3)CC2)C2(O)CCCCC2)c1` [Example 8, 1-[3-[4-(6-chloro-2-pyrazinyl)-1-piperazinyl]-1-(3-methoxyphenyl)-1-(3-methoxyphenyl)-1-propenyl]cyclohexanol] showed a pKi at 5-HT1A receptor (rat hippocampal tissue) of 6.86.

As to `COc1ccc(C(=CCCN2CCN(Cc3ccccc3)CC2)C2(O)CCCCC2)cc1` [Example 10, 1-[1-(4-methoxyphenyl)-4-[4-(phenylmethyl)-1-piperazinyl]-1-butenyl]cyclohexanol], the inhibition at 1 µM on 5-HT1A receptor (setting [3]) is 74%; at dopamine D2 receptor, 53%. Further, the figures for the pIC50 in assay [1] and in assay [2] were 6.72 and 6.04, respectively.
